# Results as given in publication PMC5962959 (ChemMedChem, 2017).
# Columns and labels:
# full-length human TSSK2 = target: T1, full-length human TSSK2 (Homo sapiens, UniProt Q96PF2); assay: Mobility shift assay: TSSK2 phosphorylation of 5-FAM-GS peptide; type: biochemical; details: for TSSK2 inhibitor confirmed in concentration-response experiments after HTS: HTS at 10 μM, cherry-picked compounds from DMSO stocks; for fold reduction in TSSK2 activity: relative to compound 18
# T1 sequence (Q96PF2 1-358): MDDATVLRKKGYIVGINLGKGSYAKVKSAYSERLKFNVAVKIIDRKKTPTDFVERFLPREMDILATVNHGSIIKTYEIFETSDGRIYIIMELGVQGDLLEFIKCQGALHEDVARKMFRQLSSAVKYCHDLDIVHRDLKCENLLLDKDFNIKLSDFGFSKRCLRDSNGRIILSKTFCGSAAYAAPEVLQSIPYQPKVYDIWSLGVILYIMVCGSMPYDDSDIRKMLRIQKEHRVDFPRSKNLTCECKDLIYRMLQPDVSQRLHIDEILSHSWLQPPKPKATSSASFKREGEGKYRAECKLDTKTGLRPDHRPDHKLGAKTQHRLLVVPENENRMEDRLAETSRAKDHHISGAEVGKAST
# [1] = tested on: insulin-like growth factor 1 receptor (IGF-1R); assay: Reported IGF-1R inhibition; type: biochemical
# GRK1 = assay: Reported GRK inhibition; type: biochemical; details: GRK data ref 10d
# [2] = tested on: kinases (PKIS profiling panel); details: at 100 nM; ref profiling data provided by GSK supporting the PKIS collections; cited from earlier work
# [3] = tested on: insulin-like growth factor 1 receptor (IGF-1R); details: cited from earlier work
# [4] = target: focal adhesion kinase (FAK); details: patent literature, Supplementary Table 2; ref 13p; cited from earlier work
# 369 wild-type kinases = assay: Kinome profiling at Reaction Biology Corp.; type: biochemical; details: 100 nM
# TSSK1 = target: T2, TSSK1 (Homo sapiens, UniProt Q9BXA7); assay: TSSK family member inhibition, TSSK1; type: biochemical
# T2 sequence (Q9BXA7 1-367): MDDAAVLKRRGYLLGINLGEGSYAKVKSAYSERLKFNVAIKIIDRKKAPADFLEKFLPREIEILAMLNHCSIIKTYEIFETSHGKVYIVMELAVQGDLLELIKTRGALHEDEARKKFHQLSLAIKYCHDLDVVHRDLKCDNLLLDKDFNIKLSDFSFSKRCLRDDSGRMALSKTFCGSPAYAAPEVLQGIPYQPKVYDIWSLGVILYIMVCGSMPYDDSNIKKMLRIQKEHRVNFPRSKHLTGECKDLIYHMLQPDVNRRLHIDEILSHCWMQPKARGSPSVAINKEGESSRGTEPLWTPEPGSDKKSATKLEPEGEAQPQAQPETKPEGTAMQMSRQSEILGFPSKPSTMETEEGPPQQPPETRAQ
# TSSK3 = assay: TSSK family member inhibition, TSSK3; type: biochemical
# TSSK6 = TSSK6 (Homo sapiens, UniProt Q9BXA6); assay: TSSK family member inhibition, TSSK6; type: biochemical
# Sequence of TSSK6 (Q9BXA6 whole entry): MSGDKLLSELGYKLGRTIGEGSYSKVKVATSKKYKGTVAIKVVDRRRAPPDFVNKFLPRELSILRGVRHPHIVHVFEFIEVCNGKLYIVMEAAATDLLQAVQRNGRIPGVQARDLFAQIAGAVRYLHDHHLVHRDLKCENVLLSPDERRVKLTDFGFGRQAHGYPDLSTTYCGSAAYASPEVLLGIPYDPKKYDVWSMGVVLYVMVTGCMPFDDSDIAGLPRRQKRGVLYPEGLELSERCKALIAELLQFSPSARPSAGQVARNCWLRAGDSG
# [5] = tested on: anaplastic lymphoma kinase (ALK); details: cited from earlier work
# FLT3 = details: ref 13b; cited from earlier work
# LRRK2 = details: ref 13c; cited from earlier work
# Tie2 = details: ref 13b; cited from earlier work
# insulin receptor = details: read-out: insulin receptor IC50; Supplementary Table 2; ref 13a; cited from earlier work
# LTK = details: read-out: LTK IC50; Supplementary Table 2; ref 13a; cited from earlier work
# CLK2 = details: read-out: CLK2 IC50; Supplementary Table 2; ref 13a; cited from earlier work
compound,measurement,setting,value
O=c1[nH]c2ccc(Cl)cc2c(N[C@@H]2CN3CCC2CC3)c1-c1nc2ccccc2[nH]1 [CHIR-124],TSSK2 inhibitor confirmed in concentration-response experiments after HTS,full-length human TSSK2,active
COc1cc2c(cc1Nc1nc(Nc3ccsc3C(N)=O)c3cc[nH]c3n1)N(C(=O)CN(C)C)CCC2(C)C [Compound 10],fold more potent inhibitors of IGF-1 than of TSSK2,[1],≥ 100 fold
same,fold selective for TSSK2 over GRK1,GRK1,> 5 fold
same,number of kinases inhibited by > 50%,[2],15 – 20
CNS(=O)(=O)c1ccccc1Nc1nc(Nc2ccc(N3CCN(C)CC3)cc2OC)ncc1Br [Compound 17],potency for inhibiting IGF-1R,"[3]; compared with FAK, ref 13p",substantially less potent
same,FAK IC50,[4],low nanomolar
CNS(=O)(=O)c1ccccc1Nc1nc(Nc2ccc(N3CCN(C)CC3)cc2OC)ncc1Cl [Compound 18],FAK IC50,[4],low nanomolar
"CNS(=O)(=O)c1ccccc1Nc1nc(Nc2ccc(C3CCN(C)CC3)cc2OC)ncc1Cl [Compound 19, 2-[[5-chloro-2-[2-methoxy-4-(1-methylpiperidin-4-yl)anilino]pyrimidin-4-yl]amino]-N-methylbenzenesulfonamide]",fold reduction in TSSK2 activity,full-length human TSSK2,< 2 fold
same,number of 369 kinases inhibited to a greater extent than TSSK2,369 wild-type kinases,62
same,fold more potent at inhibiting TSSK1 than TSSK2,TSSK1,> 40 fold
same,rank order potency at TSSK isoforms,TSSK1,TSSK1 > TSSK2 > TSSK3 > TSSK6
same,fold more potent at TSSK1 than TSSK3,TSSK3,800 fold
same,activity at TSSK6,TSSK6,almost inactive
same,fold selective for TSSK1 over TSSK6,TSSK6,"~100,000 fold"
COc1cc(N2CCC(N3CCN(C)CC3)CC2)ccc1Nc1ncc(Cl)c(Nc2ccccc2S(=O)(=O)C(C)C)n1 [Compound 22],fold reduction in TSSK2 activity,full-length human TSSK2,~ 2 fold
same,activity at ALK,[5],low nanomolar
same,activity at FLT3,FLT3,low nanomolar
same,activity at LRRK2,LRRK2,low nanomolar
same,activity at Tie2,Tie2,low nanomolar
COc1cc(N2CCC(O)CC2)ccc1Nc1nc(Nc2ccccc2S(=O)(=O)C(C)C)c2[nH]cnc2n1 [Compound 35],IC50,"[3]; read-out: IGF-1R IC50, Supplementary Table 2, ref 13a",20 to 40 nM
same,IC50,insulin receptor,20 to 40 nM
same,IC50,LTK,20 to 40 nM
same,IC50,CLK2,20 to 40 nM
CCn1c(-c2nonc2N)nc2c(C#CC(C)(C)O)nc(O[C@@H](CN)c3ccccc3)cc21 [GSK1007102B],TSSK2 inhibitor confirmed in concentration-response experiments after HTS,full-length human TSSK2,active
CC(=O)NCC(=O)N1[C@@H]2CC[C@H]1c1ccc(Nc3ncc(C(F)(F)F)c(NC4CCC4)n3)cc12 [PF-03814735],TSSK2 inhibitor confirmed in concentration-response experiments after HTS,full-length human TSSK2,active
COc1ccc([C@@H]2CC(=O)c3c(O)cc(O[C@@H]4O[C@H](CO[C@@H]5O[C@@H](C)[C@H](O)[C@@H](O)[C@H]5O)[C@@H](O)[C@H](O)[C@H]4O)cc3O2)cc1O [hesperidin],TSSK2 inhibitor confirmed in concentration-response experiments after HTS,full-length human TSSK2,active
